According to ChEMBL document CHEMBL5120764, “Isarubrolone C Promotes Autophagic Degradation of Virus Proteins via Activating ATG10S in HepG2 Cells” (J Nat Prod, 2022):
Calls of active or inactive are those of the source.

Columns and labels:
Format in all cases: functional, cell-based
[1] = test system: HepG2; assay: Effect on ZIKV-NS5 degradation in human HepG2 cells transfected with ZIKV-NS5 at 10 uM pretreated with proteosome inhibitor MG132 for 12 hrs followed by compound addition and measured after 24 hrs by western blot analysis
[2] = test system: HepG2; assay: Induction of autophagy in human HepG2 cells assessed as increase in IL28A protein level upto 10 uM and measured after 6 hrs by western blot analysis; conditions: DDE = dose-dependent effect
[3] = test system: HepG2; assay: Upregulation of endogenous ATG10S activated co-localisation of ZIKV-NS5 with LAMP2 in human HepG2 cells co-transfected with ZIKV-NS5 and ATG10-misMO by cellular immunofluorescence assay
[4] = test system: HepG2; assay: Induction of autophagy in human HepG2 cells transfected with HBV-X and gene knockdown by IL28A morpholinos assessed as LC3B and LAMP2 interaction at 10 uM incubated for 24 hrs in presence of anti-LC3B antibodies by co-immunoprecipitation assay
[5] = test system: HepG2; assay: Induction of autophagy in human HepG2 cells assessed as decrease in P62 expression level upto 10 uM and measured after 6 hrs by western blot analysis; conditions: DDE = dose-dependent effect
[6] = test system: HepG2; assay: Upregulation of P62 in human HepG2 cells transfected with HCV sub-replicon and gene knockdown by IL28A morpholinos at 10 uM incubated for 24 hrs by western blot analysis
[7] = test system: HepG2; assay: Upregulation of LC3B in human HepG2 cells transfected with HCV sub-replicon and gene knockdown by IL28A morpholinos at 10 uM incubated for 24 hrs by western blot analysis
[8] = test system: HepG2; assay: Downregulation of HIV-RT in human HepG2 cells co-transfected with HIV-RT and ATG10-misMO upto 10 uM incubated for 24 hrs by western blot analysis
[9] = test system: HepG2; assay: Induction of autophagy in human HepG2 cells transfected with ZIKV-NS5 and gene knockdown by IL28A morpholinos assessed as LC3B and LAMP2 interaction at 10 uM incubated for 24 hrs in presence of anti-LC3B antibodies by co-immunoprecipitation assay
[10] = test system: HepG2; assay: Induction of autophagy in human HepG2 cells transfected with HBx assessed as increase in HBx-LAMP2 interaction level at 10 uM incubated for 24 hrs in presence of anti-Flag antibodies by co-immunoprecipitation assay
[11] = test system: HepG2; assay: Upregulation of endogenous ATG10S activated co-localisation of HBx with LC3B in human HepG2 cells co-transfected with HBx and ATG10-misMO by cellular immunofluorescence assay
[12] = test system: HepG2; assay: Upregulation of LC3B in human HepG2 cells transfected with ZIKV-NS5 and gene knockdown by IL28A morpholinos at 10 uM incubated for 24 hrs by western blot analysis
[13] = test system: HepG2; assay: Induction of autophagy in human HepG2 cells transfected with HCV subgenomic replicon and gene knockdown by IL28A morpholinos assessed as LC3B and LAMP2 interaction at 10 uM incubated for 24 hrs in presence of anti-LC3B antibodies by co-immunoprecipitation assay
[14] = test system: HepG2; assay: Downregulation of HBVx in human HepG2 cells transfected with HBVx upto 10 uM incubated for 24 hrs by western blot analysis
[15] = test system: HepG2; assay: Induction of autophagy in human HepG2 cells transfected with HIV-RT and gene knockdown by IL28A morpholinos assessed as LC3B and LAMP2 interaction at 10 uM incubated for 24 hrs in presence of anti-LC3B antibodies by co-immunoprecipitation assay
[16] = test system: HepG2; assay: Upregulation of endogenous ATG10S activated co-localisation of HBx with LAMP2 in human HepG2 cells co-transfected with HBx and ATG10-misMO by cellular immunofluorescence assay
[17] = test system: HepG2; assay: Induction of autophagy in human HepG2 cells transfected with HCV subgenomic replicon assessed as HCV-NS5B/P62 combination at 10 uM incubated for 24 hrs in presence of anti-LC3B antibodies by co-immunoprecipitation assay
[18] = test system: HepG2; assay: Induction of autophagy in human HepG2 cells transfected with HCV subgenomic replicon assessed as HCV-NS5B/LAMP2 combination at 10 uM incubated for 24 hrs in presence of anti-LAMP2 antibodies by co-immunoprecipitation assay
[19] = test system: HepG2; assay: Upregulation of ATG10/ATG10S mRNA level in human HepG2 cells transfected with ZIKV-NS5 upto 10 uM by RT-PCR analysis; conditions: DDE = dose-dependent effect
[20] = test system: HepG2; assay: Effect on HCV-CORE degradation in human HepG2 cells transfected with HCV sub-replicon at 10 uM pretreated with proteosome inhibitor MG132 for 12 hrs followed by compound addition and measured after 24 hrs by western blot analysis
[21] = test system: HepG2; assay: Downregulation of HIV-RT in human HepG2 cells transfected with HIV-RT upto 10 uM incubated for 24 hrs by western blot analysis
[22] = test system: HepG2; assay: Upregulation of IL28A mRNA expression level in human HepG2 cells transfected with ZIKV-NS5 upto 10 uM by qRT-PCR analysis; conditions: DDE = dose-dependent effect
[23] = test system: HepG2; assay: Upregulation of IL28A mRNA expression level in human HepG2 cells transfected with HBV-X upto 10 uM by qRT-PCR analysis; conditions: DDE = dose-dependent effect
[24] = test system: HepG2; assay: Induction of autophagy in human HepG2 cells transfected with HBx assessed as decrease in HBx protein level upto 10 uM and measured after 6 hrs by western blot analysis; conditions: DDE = dose-dependent effect
[25] = test system: HepG2; assay: Upregulation of LC3B in human HepG2 cells transfected with HBx and gene knockdown by IL28A morpholinos at 10 uM incubated for 24 hrs by western blot analysis
[26] = test system: HepG2; assay: Upregulation of ATG10/ATG10S mRNA level in human HepG2 cells transfected with HBx upto 10 uM by RT-PCR analysis; conditions: DDE = dose-dependent effect
[27] = test system: HepG2; assay: Upregulation of HCV-NS5B in human HepG2 cells transfected with HCV sub-replicon and gene knockdown by IL28A morpholinos at 10 uM incubated for 24 hrs by western blot analysis
[28] = test system: HepG2; assay: Effect on HIV-RT degradation in human HepG2 cells transfected with HIV-RT at 10 uM pretreated with proteosome inhibitor MG132 for 12 hrs followed by compound addition and measured after 24 hrs by western blot analysis
[29] = test system: HepG2; assay: Upregulation of endogenous ATG10S activated co-localisation of HIV-RT with LC3B in human HepG2 cells co-transfected with HIV-RT and ATG10-sMO by cellular immunofluorescence assay
[30] = test system: HepG2; assay: Upregulation of endogenous ATG10S activated co-localisation of HIV-RT with LAMP2 in human HepG2 cells co-transfected with HIV-RT and ATG10-sMO by cellular immunofluorescence assay
[31] = test system: HepG2; assay: Upregulation of P62 in human HepG2 cells transfected with HIV-RT and gene knockdown by IL28A morpholinos at 10 uM incubated for 24 hrs by western blot analysis
[32] = test system: HepG2; assay: Downregulation of HCV-CORE in human HepG2 cells co-transfected with HCV-subreplicon and ATG10-misMO upto 10 uM incubated for 24 hrs by western blot analysis
[33] = test system: HepG2; assay: Upregulation of endogenous ATG10S activated co-localisation of HIV-RT with LC3B in human HepG2 cells co-transfected with HIV-RT and ATG10-misMO by cellular immunofluorescence assay

Measured: Activity

CC[C@@H](O)c1nc(C)cc2c1C(=O)c1cc(=O)c3c(c(O)c1-2)O[C@@H]1O[C@H](C)[C@@H](OC)[C@@H](O)[C@]31O
active: [1] | [2] Dde | [3] | [4] | [5] Dde | [6] | [7] | [8] | [9] | [10] | [11] | [12] | [13] | [14] | [15] | [16] | [17] | [18] | [19] Dde | [20] | [21] | [22] Dde | [23] Dde | [24] Dde | [25] | [26] Dde | [27] | [28] | [29] | [30] | [31] | [32] | [33]
